Results as given in ChEMBL document CHEMBL1129225, “Synthesis of 11,13-bridged progestational steroids” (1997).
The source made the active and inactive calls. The calls are words filed in the database; no cut-off is given here.

Tests used:
Oryctolagus cuniculus = test: In vivo activity using McPhail test after oral dose; assay type: functional
[1] = biological target: T1, Progesterone receptor (Homo sapiens) (UniProt P06401); test: Relative binding affinity to progesterone receptor of MCF-7 cytosol; No competitive binding
T1 sequence (whole entry): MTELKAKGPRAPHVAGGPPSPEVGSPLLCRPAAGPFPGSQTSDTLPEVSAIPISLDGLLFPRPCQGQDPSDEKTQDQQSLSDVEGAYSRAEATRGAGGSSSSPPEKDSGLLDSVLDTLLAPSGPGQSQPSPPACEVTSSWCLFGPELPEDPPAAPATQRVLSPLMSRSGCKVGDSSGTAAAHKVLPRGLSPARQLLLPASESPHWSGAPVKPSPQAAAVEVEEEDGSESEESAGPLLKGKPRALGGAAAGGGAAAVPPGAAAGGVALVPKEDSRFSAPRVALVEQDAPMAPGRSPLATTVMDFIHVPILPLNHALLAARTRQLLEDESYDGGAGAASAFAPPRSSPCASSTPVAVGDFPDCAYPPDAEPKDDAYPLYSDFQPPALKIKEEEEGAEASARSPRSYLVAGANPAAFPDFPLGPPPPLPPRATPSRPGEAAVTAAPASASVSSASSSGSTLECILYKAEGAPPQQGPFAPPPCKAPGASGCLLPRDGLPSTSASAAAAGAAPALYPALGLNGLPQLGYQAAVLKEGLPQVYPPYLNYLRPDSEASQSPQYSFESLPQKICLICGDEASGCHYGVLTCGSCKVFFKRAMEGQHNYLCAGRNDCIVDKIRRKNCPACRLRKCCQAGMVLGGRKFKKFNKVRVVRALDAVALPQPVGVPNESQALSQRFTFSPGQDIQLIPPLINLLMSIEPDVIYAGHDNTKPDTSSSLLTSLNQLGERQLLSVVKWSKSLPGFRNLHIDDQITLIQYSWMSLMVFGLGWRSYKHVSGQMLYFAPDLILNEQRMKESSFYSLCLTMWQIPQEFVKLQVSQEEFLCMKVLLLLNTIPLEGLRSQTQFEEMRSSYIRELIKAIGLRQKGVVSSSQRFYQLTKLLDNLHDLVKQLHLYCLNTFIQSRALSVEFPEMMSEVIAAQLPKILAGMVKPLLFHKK

relative binding affinity (RBA) [1]	SMILES	ED2 (Oryctolagus cuniculus)
–	C#C[C@]1(O)CCC2C3CCC4=CC(=O)CCC4C3[C@@H](C)CC21C (stereo partly specified)	15 µg/kg
inactive	C#C[C@]1(O)CCC2C3CCC4=CC(=O)CCC4C3[C@@H]3C[C@@]21CO3 (stereo partly specified)	>4000 µg/kg
–	C#C[C@]1(O)CCC2C3CCC4=CC(=O)CCC4C3[C@H]3C=C[C@]21C3 (stereo partly specified)	>125 µg/kg
–	C#C[C@]1(O)CC[C@H]2[C@@H]3CCC4=CC(=O)CC[C@@H]4[C@H]3CC[C@@]21C [NORETHINDRONE]	500 µg/kg
–	C#C[C@]1(O)CCC2C3CCC4=CC(=O)CCC4C3[C@H]3CC[C@]21C3 (stereo partly specified)	32 µg/kg
